The conditions of the data set: 101.33 kPa, Liquid, Vibrating tube method.

Numbers after ± are expanded uncertainties.

As usually defined, the mass density is the mass of a sample divided by its volume.

On to `CCCC[N+]1(C)CCCC1.N#CC(=C=[N-])C#N` [1-butyl-1-methylpyrrolidinium tricyanomethanide], for which the mass density (298.15 K) is 1006.91 ± 1.3 kg/m3. Still for that read-out and setting: in the case of `CC(C)=O` [acetone] it was 785.32 ± 1 kg/m3.

As to `CCCO` [propan-1-ol], where the note is “298.15 K”, the mass density is 799.52 ± 1 kg/m3. Turning to `CCCCCCn1cc[n+](C)c1.N#C[B-](C#N)(C#N)C#N` [1-hexyl-3-methylimidazolium tetracyanoborate], the mass density (308.15 K) came to 983.03 ± 1 kg/m3. Consider `c1ccc2sccc2c1` [benzo[b]thiophene], for which the mass density by setting is: (308.15 K) 1150.81 ± 1 kg/m3; (318.15 K) 1141.83 ± 1 kg/m3; (328.15 K) 1132.85 ± 1 kg/m3.

Regarding `CCCCCCC` [heptane], under “298.15 K”, the mass density is 679.54 ± 1 kg/m3.

Regarding `CCCC[N+]1(C)CCCC1.O=S(=O)([O-])C(F)(F)F` [1-butyl-1-methylpyrrolidinium trifluoromethanesulfonate], the mass density (298.15 K) was found to be 1252.75 ± 1.1 kg/m3. For the compound `c1ccsc1` [thiophene], the mass density (298.15 K) turned out to be 1058.92 ± 1 kg/m3.

Source of the values: the NIST ThermoML archive (doi:10.1016/j.jct.2014.04.025).
